# Columns and labels:
# [1] = Clearance in Dawley rat; assay type: ADME, organism-based; conditions: Sprague-Dawley, plasma, read-out: Clp
# [2] = Bioavailability in rat (Sprague-Dawley); assay type: ADME, organism-based; conditions: in vivo
# [3] = target: T1, Integrin alpha-4/beta-1 (Homo sapiens, UniProt P05556+P13612); assay: In vitro inhibition of [125I]VCAM-Ig binding to very late antigen -4 on jurkat cells.; assay type: cell-based
# [4] = species on record: Rattus norvegicus; assay: Half-life was determined in Dawley rat; conditions: in vivo
# [5] = species on record: Rattus norvegicus; assay: Volume of distribution at steady state in Dawley rat; conditions: in vivo
# [6] = target: T1, Integrin alpha-4/beta-1; assay: Inhibition of [125I]-VCAM-Ig binding to very late antigen -4 (VLA-4) on Jurkat cells at 4 uM; assay type: cell-based
# T1 sequence (P05556 whole entry): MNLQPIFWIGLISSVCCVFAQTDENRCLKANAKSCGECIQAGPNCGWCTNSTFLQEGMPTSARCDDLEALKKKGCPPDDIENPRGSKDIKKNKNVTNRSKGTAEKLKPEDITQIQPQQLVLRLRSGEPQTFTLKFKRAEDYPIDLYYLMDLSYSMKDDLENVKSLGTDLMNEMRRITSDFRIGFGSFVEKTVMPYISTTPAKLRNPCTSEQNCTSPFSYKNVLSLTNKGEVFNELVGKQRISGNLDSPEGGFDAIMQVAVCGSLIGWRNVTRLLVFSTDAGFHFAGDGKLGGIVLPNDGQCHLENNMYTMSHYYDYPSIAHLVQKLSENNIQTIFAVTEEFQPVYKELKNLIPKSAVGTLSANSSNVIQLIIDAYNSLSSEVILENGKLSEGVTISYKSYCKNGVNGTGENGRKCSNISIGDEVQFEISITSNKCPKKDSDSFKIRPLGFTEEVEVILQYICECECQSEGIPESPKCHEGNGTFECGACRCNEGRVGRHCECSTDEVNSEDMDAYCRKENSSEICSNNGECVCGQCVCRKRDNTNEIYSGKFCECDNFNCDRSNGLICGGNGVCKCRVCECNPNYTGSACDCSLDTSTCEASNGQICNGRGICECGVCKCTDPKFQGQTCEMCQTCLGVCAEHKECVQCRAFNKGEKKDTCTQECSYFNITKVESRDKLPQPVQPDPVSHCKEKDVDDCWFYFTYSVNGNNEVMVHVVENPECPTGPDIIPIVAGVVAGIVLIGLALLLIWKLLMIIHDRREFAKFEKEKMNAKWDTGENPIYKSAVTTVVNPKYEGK
# T1 sequence (P13612 whole entry): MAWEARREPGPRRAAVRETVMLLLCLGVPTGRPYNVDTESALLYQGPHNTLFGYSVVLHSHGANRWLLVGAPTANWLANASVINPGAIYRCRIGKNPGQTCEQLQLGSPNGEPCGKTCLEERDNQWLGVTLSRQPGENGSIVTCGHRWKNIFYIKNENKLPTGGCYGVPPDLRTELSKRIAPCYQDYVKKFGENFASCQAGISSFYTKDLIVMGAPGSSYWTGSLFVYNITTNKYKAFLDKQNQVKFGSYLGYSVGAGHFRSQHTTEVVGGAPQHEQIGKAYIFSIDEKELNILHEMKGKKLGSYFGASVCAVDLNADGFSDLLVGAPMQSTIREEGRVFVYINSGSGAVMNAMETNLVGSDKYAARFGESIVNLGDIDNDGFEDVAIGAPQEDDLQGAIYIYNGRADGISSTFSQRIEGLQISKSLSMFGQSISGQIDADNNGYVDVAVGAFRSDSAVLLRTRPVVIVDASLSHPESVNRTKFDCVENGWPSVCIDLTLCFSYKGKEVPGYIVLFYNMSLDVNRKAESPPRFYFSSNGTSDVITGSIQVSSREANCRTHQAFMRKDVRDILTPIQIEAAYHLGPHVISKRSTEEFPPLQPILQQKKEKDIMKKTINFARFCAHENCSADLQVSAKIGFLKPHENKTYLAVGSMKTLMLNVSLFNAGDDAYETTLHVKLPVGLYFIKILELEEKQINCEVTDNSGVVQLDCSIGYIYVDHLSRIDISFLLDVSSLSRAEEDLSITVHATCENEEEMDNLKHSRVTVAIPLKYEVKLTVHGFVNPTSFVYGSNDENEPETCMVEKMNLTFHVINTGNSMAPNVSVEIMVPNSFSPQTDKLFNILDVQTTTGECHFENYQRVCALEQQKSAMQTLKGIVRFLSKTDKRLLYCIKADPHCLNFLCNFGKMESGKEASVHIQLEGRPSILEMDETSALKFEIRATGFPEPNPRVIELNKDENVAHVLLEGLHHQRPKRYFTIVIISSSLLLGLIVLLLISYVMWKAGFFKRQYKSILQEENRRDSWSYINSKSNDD
SMILES,IC50 [3] [nM],further results
COc1cccc(OC)c1-c1ccc(CC(Nc2cccc(S(=O)(=O)N3CCCC3)c2)C(=O)O)cc1 (stereo not given),12,clearance [1]: 73 mL/min/kg; bioavailability [2]: 24%; T1/2 [4]: 54 min; Vdss [5]: 0.55 L/kg
COc1cccc(OC)c1-c1ccc(CC(Nc2ccccn2)C(=O)O)cc1 (stereo not given),610,
COc1cccc(OC)c1-c1ccc(CC(Nc2cc(Cl)cc(Cl)c2)C(=O)O)cc1 (stereo not given),6490,
COc1cccc(OC)c1-c1ccc(CC(Nc2ccc(C(=O)N3CCCC3)cn2)C(=O)O)cc1 (stereo not given),23,
COc1cccc(OC)c1-c1ccc(CC(NC(=O)c2ccccc2)C(=O)O)cc1 (stereo not given),1.2,
COc1cccc(OC)c1-c1ccc(CC(Nc2ccc(C(F)(F)F)cc2)C(=O)O)cc1 (stereo not given),,inhibition [6]: 45%
COc1cccc(OC)c1-c1ccc(C[C@H](NC(C)=O)C(=O)O)cc1,12,
COc1cccc(OC)c1-c1ccc(CC(Nc2ccccc2[N+](=O)[O-])C(=O)O)cc1 (stereo not given),3550,
COc1cccc(OC)c1-c1ccc(CC(Nc2ccc(S(=O)(=O)c3ccccc3)cc2)C(=O)O)cc1 (stereo not given),240,
COc1cccc(NC(Cc2ccc(-c3c(OC)cccc3OC)cc2)C(=O)O)n1 (stereo not given),4180,
CCCS(=O)(=O)c1cc(NC(Cc2ccc(-c3c(OC)cccc3OC)cc2)C(=O)O)ncn1 (stereo not given),0.39,clearance [1]: 17 mL/min/kg; bioavailability [2]: 6%; T1/2 [4]: 48 min; Vdss [5]: 0.28 L/kg
COc1cccc(OC)c1-c1ccc(CC(Nc2cc(C(F)(F)F)cc(C(F)(F)F)c2)C(=O)O)cc1 (stereo not given),,inhibition [6]: 46%

# Second part, led by results:
IC50 [3] [nM],SMILES,further results
8870,COc1cccc(OC)c1-c1ccc(CC(Nc2ccccc2)C(=O)O)cc1 (stereo not given),
97,COc1cccc(OC)c1-c1ccc(CC(Nc2ccc(S(C)(=O)=O)cc2)C(=O)O)cc1 (stereo not given),
91,COc1cccc(OC)c1-c1ccc(CC(Nc2ccc(S(=O)(=O)N3CCCC3)cc2)C(=O)O)cc1 (stereo not given),
820,COc1cccc(OC)c1-c1ccc(CC(Nc2cccnc2)C(=O)O)cc1 (stereo not given),
170,COc1cccc(OC)c1-c1ccc(CC(Nc2ccncc2)C(=O)O)cc1 (stereo not given),
4470,COc1cccc(OC)c1-c1ccc(CC(Nc2ccc(C#N)cc2)C(=O)O)cc1 (stereo not given),
3190,COc1cccc(OC)c1-c1ccc(CC(Nc2ccc(C(F)(F)F)cn2)C(=O)O)cc1 (stereo not given),
5250,COc1cccc(OC)c1-c1ccc(CC(Nc2ccc([N+](=O)[O-])cc2)C(=O)O)cc1 (stereo not given),
4360,COc1cccc(OC)c1-c1ccc(CC(Nc2cccc(C#N)c2)C(=O)O)cc1 (stereo not given),
320,COc1cccc(OC)c1-c1ccc(CC(Nc2ccc(C(=O)N3CCCC3)cc2)C(=O)O)cc1 (stereo not given),
